Laboratory results reported in ChEMBL document CHEMBL1142643, “Haligramides A and B, two new cytotoxic hexapeptides from the marine sponge Haliclona nigra” (J Nat Prod, 2000).
Converted amounts (≈) assume the structure as drawn. Starred links: 1 amine or outer side, 2 acyl side, 3 side chain; linkers in the order of their positions; H or OH if unused. Non-standard residues stand in square brackets, D forms with d. Residues, ends and D or L forms follow the SMILES beside them. X1 = O=C(c1csc([C@H](Cc2ccccc2)N[*:1])n1)[*:2]; Met(O) = CS(=O)CC[C@H](N)C(=O)O

Columns and labels:
Type in all cases: functional, cell-based
A549 = assay: Cytotoxicity against human A549 cells after 2 days; details: A549, 48 h
HCT-15 = assay: Cytotoxicity against human HCT15 cells after 2 days; details: HCT-15, 48 h
SF-539 = assay: Cytotoxicity against human SF539 cells after 2 days; details: SF-539, 48 h
SNB-19 = assay: Cytotoxicity against human SNB19 cells after 2 days; details: SNB-19, 48 h

SMILES	IC50 (A549)	IC50 (HCT-15)	IC50 (SF-539)	IC50 (SNB-19)
CSCC[C@@H]1NC(=O)[C@@H]2CCCN2C(=O)[C@@H]2CCCN2C(=O)[C@H](CCSC)NC(=O)c2csc(n2)[C@H](Cc2ccccc2)NC(=O)[C@@H]2CCCN2C1=O [HALIGRAMIDE A] (cyclo(MPPMP[X1]))	5.17 µg/mL (≈ 6.59 µM)	15.6 µg/mL (≈ 19.9 µM)	9 µg/mL (≈ 11.5 µM)	9.08 µg/mL (≈ 11.6 µM)
CSCC[C@@H]1NC(=O)[C@@H]2CCCN2C(=O)[C@@H]2CCCN2C(=O)[C@H](CC[S+](C)[O-])NC(=O)c2csc(n2)[C@H](Cc2ccccc2)NC(=O)[C@@H]2CCCN2C1=O (stereo partly drawn) [HALIGRAMIDE B] (cyclo(MP[X1][Met(O)]PP))	3.89 µg/mL (≈ 4.86 µM)	8.82 µg/mL (≈ 11 µM)	5.01 µg/mL (≈ 6.26 µM)	6.56 µg/mL (≈ 8.2 µM)
